Source: BindingDB's records for doi:10.1021/jm9604890 (University of Groningen, 1997)

Assay: Compound was tested for intrinsic efficacy against human 5-hydroxytryptamine 1D receptor alpha measured as the reduction of forskolin-stimulated cAMP.

Row | Structure (SMILES) | Ki
1 | CCCN(CCC)CCc1c[nH]c2ccc(OS(=O)(=O)C(F)(F)F)cc12 [Trifluoro-methanesulfonic acid 3-(2-dipropylamino-ethyl)-1H-indol-5-yl ester] | 36 nM
2 | CN(C)CCc1c[nH]c2ccc(OS(=O)(=O)C(F)(F)F)cc12 [Trifluoro-methanesulfonic acid 3-(2-dimethylamino-ethyl)-1H-indol-5-yl ester] | 30 nM
3 | NCCc1c[nH]c2ccc(OS(=O)(=O)C(F)(F)F)cc12 [Trifluoro-methanesulfonic acid 3-(2-amino-ethyl)-1H-indol-5-yl ester] | 19 nM
